Laboratory results published in patent US11415579B2, “Assay for measuring a rate of reaction between a target and a ligand candidate” (Imperial College Innovations Ltd., priority 2016, dated 2022).

Legend:
[1] = biological target: T1, human cyclin-dependent kinase 2 (Cdk2) (Homo sapiens, UniProt P24941); assay: Kinetic thiol consumption assay with wild type Cdk2 (C177); assay type: binding; set-up: key to Rate enhancement, Cdk2 WT: k(Cdk2) divided by k(model thiol); Rate constant with Cdk2 (k(Cdk2)): unit not given here; conditions: for Rate enhancement, Cdk2 WT: no additional mutations; for Rate constant with Cdk2 WT: Protein: Cdk2, cysteine position WT, in h^-1; for Rate constant with Cdk2 (k(Cdk2)): 500 μM ligand, 5 μM thiol, phosphate buffer pH 8; for k(Cdk2)/k(GSH) rate enhancement: model thiol glutathione
T1 construct: poly-histidine; made in house; host or cells: E. coli
Method: (§1) A library of 120 acrylamides was screened against a) human cyclin-dependent kinase 2 (Cdk2, which contains one surface exposed cysteine residue—C177), prepared by cloning cDNA into the pRSETA bacterial expression vector to generate a poly-histidine tagged Cdk2 fusion that was purified from E. coli using standard techniques, and b) a model thiol (specific details are given below). The structures of these 120 acrylamides are set out in Table 1, above.
(§2) To wells containing 150 μL thiol (Cdk2 or model thiol) (5 μM) in degassed phosphate buffer (pH 8) was added immobilized TCEP beads (2% v/v).
(§3) After incubation of the fluorescence plates for 1 hour at room temperature, fluorescence measurements (excitation/emission of 380/470 nm) were taken on a PerkinElmer EnVision multilabel plate reader and processed with EnVision Workstation version 1.12.
(§4) Fluorescence measurements were normalized against a DMSO/thiol only control and plotted against time.
(§5) Rate constants were calculated using GraphPad software Prism version 6 by fitting a first order exponential decay to the data. The rate constant for each acrylamide with Cdk2 was divided by the rate constant for that fragment with the model thiol to provide the rate enhancement for each ligand candidate.

[2] = biological target: T2, Cdk2(C177A, F80C) (Homo sapiens, UniProt P24941, C177A/F80C); assay: Kinetic thiol consumption assay with Cdk2 mutant F80C, incl. kobs versus concentration (Kd, k2); assay type: binding; set-up: key to Rate enhancement, Cdk2 F80C: Cdk2 rate constant divided by model-thiol rate constant; conditions: additional mutation C177A; for Rate constant with Cdk2 F80C: Protein: Cdk2, cysteine position F80C, in h^-1
T2 construct: poly-histidine; made in house; host or cells: E. coli
Method: Therefore the assay can be used to calculate both k2 and Kd by experimentally determining kobs at a suitable range of ligand candidate concentrations. Typically Kd and k2 would then be determined by fitting a hyperbolic curve to a plot of kobs against ligand candidate concentration (FIG. 9).
as §2, §3, §4, §5
(§6) A further set of set of additional Cdk2 mutants were screened, all containing the C177A mutation and therefore with only one cysteine on the surface: • F80C (without the K278C mutation) • H71C • S276C • N272 • T182C • R122C • S181C
(§7) Mutations were introduced by site-directed mutagenesis and the resulting cDNA was cloned into the pRSETA bacterial expression vector to generate a poly-histidine tagged Cdk2 fusion that was purified from E. coli using standard techniques.
Rate constants were calculated as described in the methodology section of Examples 1 and 2.

[3] = biological target: T3, Cdk2(T182C) (C177A) (Homo sapiens, UniProt P24941, C177A/T182C); assay: Kinetic thiol consumption assay with Cdk2 mutant T182C; assay type: binding; set-up: key to Rate enhancement, Cdk2 T182C: rate constant with Cdk2 ÷ rate constant with model thiol (fold); conditions: additional mutation C177A; for Rate constant with Cdk2 T182C: Protein: Cdk2, cysteine position T182C, in h^-1
T3 construct: poly-histidine; made in house; host or cells: E. coli
Method: as §2, §3, §4, §5, §6, §7

[4] = biological target: T4, Cdk2(S276C) (C177A) (Homo sapiens, UniProt P24941, C177A/S276C); assay: Kinetic thiol consumption assay with Cdk2 mutant S276C; assay type: binding; set-up: key to Rate enhancement, Cdk2 S276C: rate constant with Cdk2 ÷ rate constant with model thiol (fold); conditions: additional mutation C177A; for Rate constant with Cdk2 S276C: Protein: Cdk2, cysteine position S276C, in h^-1
T4 construct: poly-histidine; made in house; host or cells: E. coli
Method: as §2, §3, §4, §5, §6, §7

[5] = biological target: T5, Cdk2(N272C) (C177A) (Homo sapiens, UniProt P24941, C177A/N272C); assay: Kinetic thiol consumption assay with Cdk2 mutant N272C; assay type: binding; set-up: key to Rate enhancement, Cdk2 N272: rate constant with Cdk2 ÷ rate constant with model thiol (fold); conditions: for Rate enhancement, Cdk2 N272: Cdk2 N272, additional mutation C177A; for Rate constant with Cdk2 N272C: Protein: Cdk2, cysteine position N272C, additional mutation C177A, in h^-1
T5 construct: poly-histidine; made in house; host or cells: E. coli
Method: as §2, §3, §4, §5, §6, §7

[6] = Kinetic thiol consumption assay with model thiol glutathione; assay type: physicochemical; set-up: Rate constant with glutathione (k(GSH)): unit not given here; conditions: for Rate constant with Glutathione: Protein: Glutathione, cysteine position NA, in h-1; for Rate constant with glutathione (k(GSH)): 500 μM ligand, 5 μM thiol, phosphate buffer pH 8
Method: as §1, §2, §3, §4, §5
The model thiol in Example 1 is glutathione (GSH). Hits were defined as fragments where kCdk2/kGSH>5.8 (empirically determined as 3 standard deviations over the mean).

[7] = biological target: T6, Cdk2(S181C) (C177A) (Homo sapiens, UniProt P24941, C177A/S181C); assay: Kinetic thiol consumption assay with Cdk2 mutant S181C; assay type: binding; set-up: key to Rate enhancement, Cdk2 S181C: rate constant with Cdk2 ÷ rate constant with model thiol (fold); conditions: additional mutation C177A; for Rate constant with Cdk2 S181C: Protein: Cdk2, cysteine position S181C, in h^-1
T6 construct: poly-histidine; made in house; host or cells: E. coli
Method: as §2, §3, §4, §5, §6, §7

[8] = biological target: T7, Cdk2(H71C) (C177A) (Homo sapiens, UniProt P24941, C177A/H71C); assay: Kinetic thiol consumption assay with Cdk2 mutant H71C; assay type: binding; set-up: key to Rate enhancement, Cdk2 H71C: rate constant with Cdk2 ÷ rate constant with model thiol (fold); conditions: additional mutation C177A; for Rate constant with Cdk2 H71C: Protein: Cdk2, cysteine position H71C, in h^-1
T7 construct: poly-histidine; made in house; host or cells: E. coli
Method: as §2, §3, §4, §5, §6, §7

[9] = biological target: T8, Cdk2(R122C) (C177A) (Homo sapiens, UniProt P24941, C177A/R122C); assay: Kinetic thiol consumption assay with Cdk2 mutant R122C; assay type: binding; set-up: key to Rate enhancement, Cdk2 R122C: rate constant with Cdk2 ÷ rate constant with model thiol (fold); conditions: additional mutation C177A; for Rate constant with Cdk2 R122C: Protein: Cdk2, cysteine position R122C, in h-1
T8 construct: poly-histidine; made in house; host or cells: E. coli
Method: as §2, §3, §4, §5, §6, §7

Compound | Rate enhancement, Cdk2 WT [1] | Rate constant with Cdk2 WT [1] | Rate enhancement, Cdk2 F80C [2] | Rate constant with Cdk2 F80C [2] | Rate enhancement, Cdk2 T182C [3] | Rate constant with Cdk2 T182C [3] | Rate enhancement, Cdk2 S276C [4] | Rate constant with Cdk2 S276C [4] | Rate enhancement, Cdk2 N272 [5] | Rate constant with Cdk2 N272C [5] | Rate constant with Glutathione [6] | Rate enhancement, Cdk2 S181C [7] | Rate constant with Cdk2 S181C [7] | Rate enhancement, Cdk2 H71C [8] | Rate constant with Cdk2 H71C [8] | Rate enhancement, Cdk2 R122C [9] | Rate constant with Cdk2 R122C [9] | Rate constant with Cdk2 (k(Cdk2)) [1] | k(Cdk2)/k(GSH) rate enhancement [1] | Rate constant with glutathione (k(GSH)) [6]
C=CC(=O)N(C1CC1)C1CCCCC1C1CCCCC1 (stereo not drawn) [CA-081/240] | 7.599 | 0.01776 | 4.621 | 0.0108 | 8.314 | 0.01943 | 7.411 | 0.01732 | 3.276 | 0.007657 | 0.002337 | 9.936 | 0.02322 | 0.9042 | 0.002113 | 0.7099 | 0.001659 |  |  | 
C=CC(=O)N1CCCC1CC1CC2CCC1C2 (stereo not drawn) [CA-087] | 1.059 | 0.00896 | 0.4785 | 0.004048 | 6.465 | 0.05469 | 0.7322 | 0.006194 | 0.3045 | 0.002576 | 0.00846 | 0.6457 | 0.005463 | 35.53 | 0.3006 | 0.319 | 0.002699 | 0.00508 | 0.9957 | 0.0051
C=CC(=O)N1CCN(Cc2noc(C3CC3)n2)CC1 [CA-091] | 0.2968 | 0.002299 | 0.1028 | 0.0007964 | 2.003 | 0.01551 | 0.9396 | 0.007277 | 0.3769 | 0.002919 | 0.007745 | 1.139 | 0.008821 | 0.1944 | 0.001506 | 0.6918 | 0.005358 | 0.0023 | 0.4376 | 0.00525
